Reference: patent publication US20250129184A1, “TARGETED ANTICOAGULANT” (Northwestern University, priority 2016, published 2025)
Where no end group is shown, it is not given here.

Assays:
albumin = albumin (Homo sapiens, UniProt P02768); experiment: peptide binding to protein-coated polystyrene surfaces (albumin); conditions: biotinylated peptide; common blood plasma protein
Procedure: (§1) During the development of embodiments of the technology provided herein, experiments were conducted to assess the binding specificity of the CREKA peptides towards fibrin and non-target components. […] Proteins were applied to uncoated polystyrene surfaces at 10 μg/cm^2 and washed with PBS three times to remove unbound protein. A range of concentrations of biotinylated CREKA and biotinylated CERAK were incubated with the treated surfaces overnight, then washed three times the next day to remove the unbound peptides. The peptides remaining on the protein-coated surfaces were quantified using fluorophore-conjugated streptavidin. […] These properties of the heparin-CREKA compounds indicate that heparin-CREKA is appropriate for administration by intravenous injection.

fibrinogen = target: T1, fibrinogen (Homo sapiens, UniProt P02671+P02675+P02679); experiment: peptide binding to protein-coated polystyrene surfaces (fibrinogen); conditions: biotinylated peptide; common blood plasma protein
T1 sequence (P02671 20-629 limits assumed): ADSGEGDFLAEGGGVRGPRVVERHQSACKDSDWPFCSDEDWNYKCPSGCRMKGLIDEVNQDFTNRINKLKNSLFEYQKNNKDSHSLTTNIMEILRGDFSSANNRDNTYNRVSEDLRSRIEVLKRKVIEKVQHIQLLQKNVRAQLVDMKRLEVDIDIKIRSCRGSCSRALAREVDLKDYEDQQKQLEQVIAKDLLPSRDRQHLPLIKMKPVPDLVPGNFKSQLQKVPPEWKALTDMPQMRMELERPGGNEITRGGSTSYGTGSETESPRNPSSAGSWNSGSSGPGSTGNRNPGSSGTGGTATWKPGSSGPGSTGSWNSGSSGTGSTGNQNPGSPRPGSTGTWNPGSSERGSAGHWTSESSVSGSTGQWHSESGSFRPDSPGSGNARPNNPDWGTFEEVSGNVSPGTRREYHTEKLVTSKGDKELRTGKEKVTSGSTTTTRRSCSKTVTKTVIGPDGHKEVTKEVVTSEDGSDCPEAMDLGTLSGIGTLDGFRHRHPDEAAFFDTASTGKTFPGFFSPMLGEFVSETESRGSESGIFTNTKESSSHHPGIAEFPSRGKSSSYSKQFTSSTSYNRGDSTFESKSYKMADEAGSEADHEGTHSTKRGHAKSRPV
T1 sequence (P02675 31-491): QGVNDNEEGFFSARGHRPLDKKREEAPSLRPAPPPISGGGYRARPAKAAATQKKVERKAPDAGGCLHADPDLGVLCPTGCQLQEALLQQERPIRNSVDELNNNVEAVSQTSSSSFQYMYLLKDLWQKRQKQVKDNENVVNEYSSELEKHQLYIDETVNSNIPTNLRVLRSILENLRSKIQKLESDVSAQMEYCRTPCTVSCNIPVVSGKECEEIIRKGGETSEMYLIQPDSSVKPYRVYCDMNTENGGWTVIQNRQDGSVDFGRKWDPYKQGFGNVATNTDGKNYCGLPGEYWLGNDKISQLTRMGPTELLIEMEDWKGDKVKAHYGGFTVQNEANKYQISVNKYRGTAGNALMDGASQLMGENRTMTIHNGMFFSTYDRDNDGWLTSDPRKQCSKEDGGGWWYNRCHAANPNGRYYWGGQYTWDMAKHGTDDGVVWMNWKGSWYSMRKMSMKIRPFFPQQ
T1 sequence (P02679 27-433 limits assumed): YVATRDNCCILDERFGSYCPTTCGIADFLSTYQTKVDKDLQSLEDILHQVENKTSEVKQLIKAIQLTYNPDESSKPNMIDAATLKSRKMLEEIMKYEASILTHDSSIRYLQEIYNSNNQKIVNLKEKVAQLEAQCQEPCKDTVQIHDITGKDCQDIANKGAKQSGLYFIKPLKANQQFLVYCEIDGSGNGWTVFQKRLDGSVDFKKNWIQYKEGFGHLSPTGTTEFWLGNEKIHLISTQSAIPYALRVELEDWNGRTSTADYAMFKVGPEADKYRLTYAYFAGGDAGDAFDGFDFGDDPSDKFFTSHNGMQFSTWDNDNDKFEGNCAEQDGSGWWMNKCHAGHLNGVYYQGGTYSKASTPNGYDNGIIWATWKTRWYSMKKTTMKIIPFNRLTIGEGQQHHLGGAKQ
Procedure: as §1

fibrin = experiment: peptide binding to protein-coated polystyrene surfaces (fibrin); conditions: biotinylated peptide vs scrambled CERAK; protein 10 μg/cm^2; overnight; fluorophore-conjugated streptavidin
Procedure: as §1

[1] = test system: ePTFE graft in abdominal aorta; experiment: rat abdominal aorta interposition model with ePTFE graft; type: in vivo, Sprague Dawley rats; conditions: two intravenous doses, 24 hours; middle_3 and distal segments
Procedure: During the development of embodiments of the technology provided herein, experiments were conducted to evaluate the in vivo performance of the heparin-CREKA relative to conventional clinically used heparin. In particular, heparin-CREKA was studied in a rat abdominal aorta interposition model. Briefly, male Sprague Dawley rats (200-500 g) were anesthetized by a ketamine/xylazine cocktail. The abdomen of the anesthetized rat was entered through a midline incision. The abdominal aorta was exposed (FIG. 7, Panel A), clamped in both proximal and distal regions using micro-vessel clips, and then excised between the clamps (FIG. 7, Panel B). A segment (e.g., approximately 1 cm in length; 1.524±0.05 mm in diameter) of expanded polytetrafluoroethylene (ePTFE) was used as a graft. The graft was connected to the abdominal aorta using an end-to-end anastomosis technique with interrupted stitches at each end (FIG. 7, Panel C). Following reperfusion of blood flow through the graft, one dose of anti-coagulant (heparin or heparin-CREKA) was given systemically via intravenous injection. The incision was then closed in layers. 24 hours after the initial implantation surgeries and immediately prior to sacrifice of the test […], a second dose of […] (heparin or heparin-CREKA) was administered systemically via intravenous injection. […]

Pig whole blood = experiment: whole blood clotting assay on fibrin coated plates; type: cell-based; conditions: fibrin coated 96-well plates pre-treated 30 minutes, washed three times with PBS; re-calcified blood; absorbance 405 nm
Procedure: During the development of embodiments of the technology provided herein, experiments were conducted to test the anti-coagulant activity of embodiments of the heparin-CREKA compounds described herein. In particular, the heparin-CREKA compounds were evaluated by a whole blood clotting assay and a platelet adhesion assay (FIGS. 4 and 5). Pig whole blood was collected into acid citrate dextrose (ACD) anticoagulant. Fibrin coated 96-well plates were pre-treated with phosphate-buffered saline (PBS), heparin, or heparin-CREKA for 30 minutes at room temperature, then followed with three washes with PBS prior to the test. The wash removes unbound heparin or heparin-CREKA from the surfaces. Control experiments included tests of tissue culture treated and untreated polystyrene 96 well plates. […] The coagulation process was monitored at each selected time point by adding 150 μl of deionized water into each well to lyse the unclotted red blood cells. The lysate was then transferred into a new plate and the absorbance was measured at a wavelength of 405 nm. Higher absorbance represents more unclotted red blood cells and better anti-coagulation effect. The anti-coagulant effect of heparin-CREKA was detected up to 60 minutes while the effect of the conventional heparin was undetectable 20 minutes after contacting the blood (FIG. 4).

platelets = experiment: platelet adhesion assay using platelet-rich plasma on fibrin surfaces; type: cell-based; conditions: compared to bare fibrin surface; at a lower concentration than heparin; PRP 1:10, 37° C., 60 minutes; LDH readout
Procedure: Next, during the development of embodiments of the technology provided herein, experiments were conducted to test the anticoagulation activity of embodiments of the heparin-CREKA compounds described herein. In particular, a platelet adhesion assay was performed using platelet-rich plasma (PRP). Surfaces were treated with various concentrations of heparin or heparin-CREKA as described above. PRP, diluted 1:10 in PBS, was incubated at 37° C. for 60 minutes with the samples and gently rinsed with warm PBS. The number of adherent platelets was determined by detecting the amount of lactate dehydrogenase (LDH) present after cell lysis. Briefly, adherent platelets were lysed by incubation with 2% Triton-PSB buffer for 30 minutes at 37° C. A colorimetric substrate for LDH was added and incubated for 20 minutes at 37° C. The optical density was measured at a wavelength of 490 nm. A calibration curve was generated from a series of serial dilutions of a known platelet concentration and used to determine the number of adhered platelets.

graft site = experiment: in vivo dosing studies, anti-coagulant effect at the graft site by imaging
Procedure: During the development of embodiments of the technology provided herein, experiments were conducted to study the in vivo binding and pharmacology response of the embodiments of heparin-CREKA. In particular, data were collected from three animal studies in which the dosing period was varied. Study 1—animals were scarified 24 hours after the initial surgery and 2 doses of heparin-CREKA or control heparin-CERAK were administrated by intravenous injection during the 24 hour period. The first dose was administered immediately after the surgery (e.g., after re-establishing blood flow at the graft area). The second dose was administered 6 hours prior to euthanizing the animal. Imaging data were collected and analyzed to evaluate the anti-coagulant effect of heparin-CREKA at the graft site. […] Study 2—animals were kept alive for 7 days after surgery and one dose of heparin-CREKA or control heparin-CERAK was administrated by intravenous injection immediately after the surgery (e.g., after re-establishing blood flow at the graft area). In contrast to Study 1, no additional dose was given after the first dose. Imaging data were collected and analyzed to evaluate the anti-coagulant effect of heparin-CREKA at the graft site. […] Study 3—animals were kept alive for 7 days after surgery and two doses of heparin-CREKA or control heparin-CERAK were administrated by intravenous injection during the 7 day period. The first dose was administered immediately after the surgery (e.g., after re-establishing blood flow at the graft area). The second dose was administered 6 hours before euthanizing the animal. Imaging data were collected and analyzed to evaluate the anti-coagulant effect of heparin-CREKA at the graft site.

binding to albumin (albumin) | binding to fibrinogen (fibrinogen) | CREKA-fibrin binding (fibrin) | Substance | clotting in the grafts (histology) [1] | time for which the anti-coagulant effect was detected after contacting the blood (Pig whole blood) | amount of adhered platelets (platelets) | anti-coagulant effect at the graft site relative to heparin-CERAK (graft site; Study 1: 24 hours, 2 intravenous doses (after surgery and 6 hours prior to euthanizing)) | anti-coagulant effect at the graft site relative to heparin-CERAK (graft site; Study 2: 7 days, one intravenous dose immediately after surgery) | anti-coagulant effect at the graft site relative to heparin-CERAK (graft site; Study 3: 7 days, two intravenous doses (after surgery and 6 hours before euthanizing))
very weakly | very weakly | highly specific | Cys-Arg-Glu-Lys-Ala (CREKA; also: biotinylated, site not given here) [tested in biotinylated form] |  |  |  |  |  | 
 |  |  | heparin [reference compound] | major clotting | < 20 min |  |  |  | 
 |  |  | heparin-CREKA: heparin covalently linked through a BMPH linker to the fibrin binding peptide Cys-Arg-Glu-Lys-Ala (CREKA) (also: heparin linked via BMPH linker, site not given here) | remained clean | up to 60 minutes | significantly reduced | significant improvement | only a very small difference | significant improvement
